Data taken from patent US10183011B2, “Anti-depression compounds” (Board of Regents of the University of Texas System, priority 2009, dated 2019).

Columns and labels:
[1] = system: HeLa cells; assay: Toxicity to HeLa cells; type: cell-based
[2] = system: G93A-SOD1 transgenic mice; assay: G93A-SOD1 model of ALS, treatment from 40 days of age; type: in vivo, mouse
Description: FIG. 24A, FIG. 24B, FIG. 24C and FIG. 24D. Example 45 Compound (P7C3) Provides Therapeutic Benefit in Animal Model of Amyotrophic Lateral Sclerosis (ALS). Female G93A SOD1 mice (n=30 in each group, with all mice sibling matched across treatment groups) were treated with either vehicle or P7C3 (10 mg/kg i.p. twice daily) starting at 40 days of age. […] This score is determined as follows: ‘0’=full extension of hind legs away from lateral midline when the test mouse is suspended by its tail, and can hold this for 2 seconds, suspended 2-3 times; ‘1’=collapse or partial collapse of leg extension towards lateral midline (weakness) or trembling of hind legs during tail suspension; ‘2’=toes curl under at least twice during walking of 12 inches, or any part of foot drags along cage bottom/table; ‘3’=rigid paralysis or minimal joint movement, foot not being used for forward motion; and ‘4’=mouse cannot right itself within 30 seconds from either side. With further disease progression, vehicle-treated mice show the expected decline in retention time on the accelerating rotarod, with retention time averaged across 4 trials (FIG. 24C, open bars). P7C3-treated mice, however, show a consistent trend towards improved performance on this task after onset of disease (FIG. 24C, filled bars), with statistically significant improvement on days 131, 138 and 145 (*, p<0.001, Student's t Test). All graphical data shown above is mean+/−SEM, with statistical analysis conducted using the Student's t Test). As another means of disease progression, walking gait was evaluated. […] Front paws are dipped in red ink, and back paws are dipped in black ink. […] All analysis was conducted blind to treatment group.
P7C3 was intraperitoneally administered to female G93A-SOD1 transgenic mice using a treatment paradigm of 10 mg/kg P7C3 i.p. twice a day, compared to vehicle, starting at 40 days of age. This treatment scheme was selected based on standard protocols for initial proof of concept screens in these mice. To control for transgene copy number, mice are sibling matched between treatment groups, as per standard protocol. After initiation of P7C3 or vehicle treatment, date of onset of illness is determined by peak weight, and initial progression of disease is defined as the day at which mice fall to 10% below their maximum weight. Mice are also assessed daily by a standard determination of neurological severity score, with a score of 2 or worse for two consecutive days serving as an additional marker of illness progression. This score is determined blind to treatment group with the scoring system described in the legend for the figure. […]
As an initial test of efficacy in this disease model, we intraperitoneally administered P7C3 to female G93A-SOD1 transgenic mice using a treatment paradigm of 20 mg/kg/day P7C3, with vehicle administered to siblings, starting at 40 days of age. […] To control for transgene copy number, mice were sibling matched between treatment groups, as per standard protocol, and quantitative PCR was performed to ensure that the copy number was maintained within the normal range. After initiation of P7C3 or vehicle treatment, date of onset of illness was determined by peak weight, and initial progression of disease was defined as the day at which mice fell to 10% below their maximum weight. Mice were also assessed daily by a standard measure of neurological severity score ranging from 0-4, with a higher number reflecting greater neurologic impairment. […]

[3] = system: hippocampal neurogenesis; assay: Neurogenic efficacy of orally administered compound, dose response; type: in vivo, mouse; conditions: for pro-neurogenic or neuroprotective efficacy, oral: daily oral gavage for 7 days
From the text: FIG. 7: Neurogenic efficacy of orally administered Example 45 Compound was dose-related. […] Results shown are the average obtained from analysis of 5 adult wild type male mice at each dose.
Pharmacokinetic analysis of Example 45 Compound in plasma and whole brain tissue was undertaken after single IV, IP and oral gavage administrations. […] These favorable pharmacological properties facilitated a dose response experiment wherein daily oral administration of Example 45 Compound to adult mice was monitored for both brain levels of the chemical and pro-neurogenic efficacy (FIG. 7).

[4] = 10 mg/kg i.p. twice a day from 40 days of age

COc1cccc(NCC(F)Cn2c3ccc(Br)cc3c3cc(Br)ccc32)c1 (stereo not drawn) [Example P7C3A20, N-(3-(3,6-dibromo-9H-carbazol-9-yl)-2-fluoropropyl)-3-methoxyaniline]
toxicity to HeLa cells [1]: no hERG channel binding, histamine receptor binding or toxicity to HeLa cells

OC(CNc1ccccc1)Cn1c2ccc(Br)cc2c2cc(Br)ccc21 (stereo not drawn) [Example P7C3]
accelerating rotarod performance [2, 4]: significantly improved performance in the accelerating rotarod task | age at neurological severity score of 2 [2, 4]: significantly delays the age at which G93A-SOD1 mice attain a neurological severity score of 2 | disease progression: time point of drop to 10% below maximum weight [2, 4]: slows disease progression | walking gait (ink footprint) [2, 4]: preservation of normal gait on day 118 | survival ([2]; 20 mg/kg/day from 40 days of age): did not translate into increased survival of the animals

OC(CNc1ccccc1)Cn1c2ccc(Br)cc2c2cc(Br)ccc21 (stereo not drawn) [Example 45 Compound]
oral dose giving maximal pro-neurogenic efficacy ([3]; daily oral administration to adult mice): ≥ 5 mg/kg | pro-neurogenic or neuroprotective efficacy, oral ([3]; doses 5 to 40 mg/kg): roughly double that of vehicle control | pro-neurogenic or neuroprotective efficacy, oral ([3]; doses below 1.0 mg/kg): no greater than vehicle control
